These compounds were tested against T1, FXR (Homo sapiens, UniProt Q96RI1) (assay: FXR antagonist screening by TR-FRET (LanthaScreen TR-FRET FXR co-activation assay kit)). Conditions: Table 1.1, FXR antagonistic activity; TR-FRET with CDCA; geometric means of at least two independent runs.
T1 construct: 5 μL of 20 nM FXR-LBD Complete Coregulator buffer G; purchased ThermoFisher PV4833
T1 sequence (Q96RI1 262-486 limits assumed): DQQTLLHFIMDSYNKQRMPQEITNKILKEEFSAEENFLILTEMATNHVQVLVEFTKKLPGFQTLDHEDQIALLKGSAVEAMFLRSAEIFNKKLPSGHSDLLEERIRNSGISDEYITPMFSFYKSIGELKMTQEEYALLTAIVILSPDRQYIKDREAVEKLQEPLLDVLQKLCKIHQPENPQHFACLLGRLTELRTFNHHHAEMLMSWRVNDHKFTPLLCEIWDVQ
Format: biochemical
Description: FXR activity was evaluated by time-resolved fluorescence resonance energy transfer (TR-FRET) assay, using LanthaScreen™ TR-FRET FXR co-activation assay kit (ThermoFisher, Cat. PV4833). For agonist screening, 10 μL of Complete Coregulator buffer G containing the corresponding concentration of the compound to be tested, 5 μL of 20 nM FXR-LBD Complete Coregulator buffer G, and 5 μL of 2.0 μM Fluorescein-SRC2-2/20 nM Tb-anti-GST antibody Complete Coregulator buffer G were added to each well of a 384-well black plate (Coring) in sequence. […] Three duplicate wells were set up for each compound, with CDCA as the positive compound and DMSO as the solvent control. For antagonist screening, 5 μL of Complete Coregulator buffer G containing the corresponding concentration of the compound to be tested, 5 μL of 20 nM FXR-LBD Complete Coregulator buffer G, 5 μL of 200 μM CDCA FXR-LBD Complete Coregulator buffer G, and 5 μL of 2.0 μM Fluorescein-SRC2-2/20 nM Tb-anti-GST antibody Complete Coregulator buffer G were added to each well of a 384-well black plate (Coring) in sequence and incubated at room temperature for 10 h. Following operations were the same as those for agonist screening
Compound CCOC(=O)c1oc2ccc(S(=O)(=O)N(CCc3ccccc3)Cc3ccccc3)cc2c1C [Example F27-S8, ethyl 5-(N-benzyl-N-phenethylsulfamoyl)-3-methylbenzofuran-2-carboxylate] has an IC50 of 50 to 100 µM. Cc1c(C(=O)O)oc2ccc(S(=O)(=O)N(CCc3ccccc3)c3ccccc3)cc12 [Example F27-S10, 3-methyl-5-(N-phenethyl-N-phenylsulfamoyl)benzofuran-2-carboxylic acid] showed an IC50 of 50 to 100 µM. Cc1c(C(=O)O)oc2ccc(S(=O)(=O)N(CCc3ccccc3)CCc3ccccc3)cc12 [Example F27-S13, 3-methyl-5-(N,N-diphenylethylsulfamoyl)benzofuran-2-carboxylic acid] showed an IC50 of 10 to 50 µM. Compound Cc1c(C(=O)O)oc2ccc(S(=O)(=O)N(CCc3ccccc3)Cc3ccc(Br)cc3)cc12 [Example F27-S30, 3-methyl-5-(N-(4-bromobenzyl)-N-phenethylsulfamoyl)benzofuran-2-carboxylic acid] has an IC50 of 10 to 50 µM. Compound Cc1c(C(=O)O)oc2ccc(S(=O)(=O)N(CCc3ccccc3)Cc3ccc(C(=O)OC(C)(C)C)cc3)cc12 [Example F27-S40, 3-methyl-5-(N-(4-(tert-butoxycarbonyl)benzyl)-N-phenethylsulfamoyl)benzofuran-2-carboxylic acid] has an IC50 of 10 to 50 µM. Cc1c(C(=O)O)oc2ccc(S(=O)(=O)N(CCc3ccccc3)Cc3cccc4cccnc34)cc12 [Example F27-S44, 3-methyl-5-(N-(quinolin-8-ylmethyl)-N-phenethylsulfamoyl)benzofuran-2-carboxylic acid] was tested, and the IC50 was 10 to 50 µM. Cc1c(C(=O)O)oc2ccc(S(=O)(=O)N(CCc3ccccc3)c3ccc(N4CCN(S(C)(=O)=O)CC4)cc3)cc12 [Example F27-S72, 3-methyl-5-(N-(4-(4-(methylsulfonyl)piperazin-1-yl)phenyl)-N-phenethylsulfamoyl)benzofuran-2-carboxylic acid] showed an IC50 of 50 to 100 µM. Cc1c(C(=O)O)oc2ccc(S(=O)(=O)N(CCc3ccccc3)Cc3ccc(N4CCN(C)CC4)cc3)cc12 [Example F27-S80, 3-methyl-5-(N-(4-(4-methylpiperazin-1-yl)benzyl)-N-phenethylsulfamoyl)benzofuran-2-carboxylic acid] showed an IC50 of 50 to 100 µM. Cc1c(C(=O)O)oc2ccc(S(=O)(=O)N(CCc3ccccc3)Cc3ccc(N4CCN(C(=O)OC(C)(C)C)CC4)cc3)cc12 [Example F27-S81, 3-methyl-5-(N-(4-(4-(tert-butoxycarbonyl)piperazin-1-yl)benzyl)-N-phenethylsulfamoyl)benzofuran-2-carboxylic acid] showed an IC50 of 10 to 50 µM. Work on Cc1c(C(=O)O)oc2ccc(S(=O)(=O)N(CCc3ccccc3)Cc3ccc(Oc4ccccc4)cc3)cc12 [Example F27-S86] yielded an IC50 of 10 to 50 µM. Cc1c(C(=O)O)oc2ccc(S(=O)(=O)N(CCc3ccccc3)Cc3ccccc3N3CCN(C(=O)OC(C)(C)C)CC3)cc12 [Example F27-S87, 3-methyl-5-(N-(2-(4-(tert-butoxycarbonyl)piperazin-1-yl)benzyl)-N-phenethylsulfamoyl)benzofuran-2-carboxylic acid] gave an IC50 of 0.1 to 10 µM.

Same assay, conditions: Table 1.2, FXR antagonistic activity; TR-FRET with CDCA; geometric means of at least two independent runs
Work on Cc1ccc(C(=O)N2CCN(c3ccccc3N(CCc3ccccc3)S(=O)(=O)c3ccc4oc(C(=O)O)c(C)c4c3)CC2)cc1 [Example F27-S106, 3-methyl-5-(N-(2-(4-(4-methylbenzoyl)piperazin-1-yl)phenyl)-N-phenethylsulfamoyl)benzofuran-2-carboxylic acid] yielded an IC50 of 0.1 to 10 µM. In the case of Cc1ccccc1C(=O)N1CCN(c2ccccc2N(CCc2ccccc2)S(=O)(=O)c2ccc3oc(C(=O)O)c(C)c3c2)CC1 [Example F27-S107, 3-methyl-5-(N-(2-(4-(2-methylbenzoyl)piperazin-1-yl)phenyl)-N-phenethylsulfamoyl)benzofuran-2-carboxylic acid], the IC50 is reported as 0.1 to 10 µM. With Cc1cccc(C(=O)N2CCN(c3ccccc3N(CCc3ccccc3)S(=O)(=O)c3ccc4oc(C(=O)O)c(C)c4c3)CC2)c1 [Example F27-S108, 3-methyl-5-(N-(2-(4-(3-methylbenzoyl)piperazin-1-yl)phenyl)-N-phenethylsulfamoyl)benzofuran-2-carboxylic acid] the IC50 was 0.1 to 10 µM. Compound CC(=O)Nc1ccc(C(=O)N2CCN(c3ccccc3N(CCc3ccccc3)S(=O)(=O)c3ccc4oc(C(=O)O)c(C)c4c3)CC2)cc1 [Example F27-S109, 5-(N-(2-(4-(4-acetamidobenzoyl)piperazin-1-yl)phenyl)-N-phenethylsulfamoyl)-3-methylbenzofuran-2-carboxylic acid] has an IC50 of 0.1 to 10 µM. Work on Cc1c(C(=O)O)oc2ccc(S(=O)(=O)N(CCc3ccccc3)c3ccccc3N3CCN(C(=O)c4ccc(C(F)(F)F)cc4)CC3)cc12 [Example F27-S110, 3-methyl-5-(N-phenethyl-N-(2-(4-(4-(trifluoromethyl)benzoyl)piperazin-1-yl)phenyl)sulfamoyl)benzofuran-2-carboxylic acid] yielded an IC50 of 0.1 to 10 µM. For Cc1c(C(=O)O)oc2ccc(S(=O)(=O)N(CCc3ccccc3)c3ccccc3N3CCN(C(=O)c4ccc(F)cc4)CC3)cc12 [Example F27-S112, 5-(N-(2-(4-(4-fluorobenzoyl)piperazin-1-yl)phenyl)-N-phenethylsulfamoyl)-3-methylbenzofuran-2-carboxylic acid], the IC50 was 0.1 to 10 µM. Compound Cc1c(C(=O)O)oc2ccc(S(=O)(=O)N(CCc3ccccc3)c3ccccc3N3CCN(C(=O)c4ccc(NC(=O)OC(C)(C)C)cc4)CC3)cc12 [Example F27-S113] has an IC50 of 0.1 to 10 µM. Work on Cc1c(C(=O)O)oc2ccc(S(=O)(=O)N(CCc3ccccc3)c3ccccc3N3CCN(C(=O)c4ccc([N+](=O)[O-])cc4)CC3)cc12 [Example F27-S114, 3-methyl-5-(N-(2-(4-(4-nitrobenzoyl)piperazin-1-yl)phenyl)-N-phenethylsulfamoyl)benzofuran-2-carboxylic acid] yielded an IC50 of 0.1 to 10 µM. Compound CC(=O)c1ccc(C(=O)N2CCN(c3ccccc3N(CCc3ccccc3)S(=O)(=O)c3ccc4oc(C(=O)O)c(C)c4c3)CC2)cc1 [Example F27-S115, 5-(N-(2-(4-(4-acetylbenzoyl)piperazin-1-yl)phenyl)-N-phenethylsulfamoyl)-3-methylbenzofuran-2-carboxylic acid] has an IC50 of 0.1 to 10 µM. Cc1c(C(=O)O)oc2ccc(S(=O)(=O)N(CCc3ccccc3)c3ccccc3N3CCN(C(=O)c4cccnc4)CC3)cc12 [Example F27-S116, 3-methyl-5-(N-(2-(4-nicotinoylpiperazin-1-yl)phenyl)-N-phenethylsulfamoyl)benzofuran-2-carboxylic acid] showed an IC50 of 0.1 to 10 µM. In the case of Cc1c(C(=O)O)oc2ccc(S(=O)(=O)N(CCc3ccccc3)c3ccccc3N3CCN(C(=O)c4ccccn4)CC3)cc12 [Example F27-S117, 3-methyl-5-(N-phenethyl-N-(2-(4-pyridinecarbonylpiperazin-1-yl)phenyl)sulfamoyl)benzofuran-2-carboxylic acid], the IC50 is reported as 0.1 to 10 µM. Work on Cc1c(C(=O)O)oc2ccc(S(=O)(=O)N(CCc3ccccc3)c3ccccc3N3CCN(C(=O)c4cccs4)CC3)cc12 [Example F27-S118, 3-methyl-5-(N-phenethyl-N-(2-(4-(thiophene-2-carbonyl)piperazin-1-yl)phenyl)sulfamoyl)benzofuran-2-carboxylic acid] yielded an IC50 of 0.1 to 10 µM. Compound Cc1c(C(=O)O)oc2ccc(S(=O)(=O)N(CCc3ccccc3)c3ccccc3N3CCN(C(=O)c4ccsc4)CC3)cc12 [Example F27-S119, 3-methyl-5-(N-phenethyl-N-(2-(4-(thiophene-3-carbonyl)piperazin-1-yl)phenyl)sulfamoyl)benzofuran-2-carboxylic acid] has an IC50 of 0.1 to 10 µM.
